Results as given in patent US10538520B2, “Benzamide and nicotinamide compounds and methods of using same” (OncoTartis Inc., priority 2013, dated 2020).

Columns and labels:
[1] = tested on: MV4-11; experiment: Cytotoxicity towards MV4-11 cell line; format: cell-based; conditions: Homo sapiens
Method: (§1) In various embodiments, the compounds of the disclosure are those in which show IC50 values in cytotoxicity experiments towards cells lines MV4-11 and U937 of >20 μM, 10-20 μM, 5-10 μM, 1-5 μM, or <1 μM.
(§2) The IC50 is divided into 5 categories: A<1 μM, B 1-5 μM, C 5-10 μM, D 10-20 μM, and E>20 μM.

[2] = tested on: U-937; experiment: Cytotoxicity towards U-937 cell line; format: cell-based; conditions: Homo sapiens
Method: as §1, §2

| Structure (SMILES) | IC50 [1] | IC50 [2] |
| --- | --- | --- |
| O=C(NCCCn1ccnc1)c1ccc(-n2cccn2)c(C#Cc2ccccc2C(F)(F)F)c1 [TT-02751] | < 1 µM | < 1 µM |
| C#Cc1cc(C(=O)NCCCn2ccnc2)ccc1-n1cccn1 [TT-02752] | 5 to 10 µM | 10 to 20 µM |
| O=C(NCCCn1ccnc1)c1cc(C#Cc2ccccc2)c2nccn2c1 [TT-02760] | 10 to 20 µM | 10 to 20 µM |
| Cn1ccnc1C(C)(O)CC1CCCN1C(=O)c1ccc(-n2cccn2)c(C#Cc2ccccc2)c1 (stereo not shown) [TT-02793] | > 20 µM | 5 to 10 µM |
| O=C(c1ccc(-n2cccn2)c(C#Cc2ccccc2)c1)N1CCCC(Cn2ccnc2)C1 (stereo not shown) [TT-02796] | 10 to 20 µM | 10 to 20 µM |
| Cc1nccn1CCN(C)C(=O)c1ccc(-n2cccn2)c(C#Cc2ccccc2)c1 [TT-02797] | > 20 µM | > 20 µM |
| Cc1nonc1CN(C)C(=O)c1ccc(-n2cccn2)c(C#Cc2ccccc2)c1 [TT-02800] | 10 to 20 µM | 1 to 5 µM |
| Cc1cc(CN(C)C(=O)c2ccc(-n3cccn3)c(C#Cc3ccccc3)c2)no1 [TT-02801] | 10 to 20 µM | 1 to 5 µM |
| Cc1noc(CNC(=O)c2ccc(-n3cccn3)c(C#Cc3ccccc3)c2)n1 [TT-02802] | > 20 µM | 1 to 5 µM |
| Cn1cnnc1C1CCN(C(=O)c2ccc(-n3cccn3)c(C#Cc3ccccc3)c2)C1 (stereo not shown) [TT-02803] | > 20 µM | < 1 µM |
| O=C(NCCn1cncn1)c1ccc(-n2cccn2)c(C#Cc2ccccc2)c1 [TT-02804] | > 20 µM | < 1 µM |
| Cc1nc(C)n(CCNC(=O)c2ccc(-n3cccn3)c(C#Cc3ccccc3)c2)n1 [TT-02805] | 1 to 5 µM | < 1 µM |
| Cc1cc(C)n(CCNC(=O)c2ccc(-n3cccn3)c(C#Cc3ccccc3)c2)n1 [TT-02927] | 10 to 20 µM | 5 to 10 µM |
| Cn1nnnc1SCCNC(=O)c1ccc(-n2cccn2)c(C#Cc2ccccc2)c1 [TT-02928] | 10 to 20 µM | 5 to 10 µM |
| O=C(NCCN1CCCC1=O)c1ccc(-n2cccn2)c(C#Cc2ccccc2)c1 [TT-02929] | > 20 µM | > 20 µM |
| CC(CNC(=O)c1ccc(-n2cccn2)c(C#Cc2ccccc2)c1)n1cncn1 (stereo not shown) [TT-02930] | > 20 µM | > 20 µM |
| O=C(NCc1ccco1)c1ccc(-n2cccn2)c(C#Cc2cccnc2)c1 [TT-02931] | > 20 µM | 10 to 20 µM |
| CCc1nnc(NC(=O)c2ccc(-n3cccn3)c(C#Cc3cccnc3)c2)s1 [TT-02932] | > 20 µM | > 20 µM |
| CC(CNC(=O)c1ccc(-n2cccn2)c(C#Cc2cccnc2)c1)n1cncn1 (stereo not shown) [TT-02933] | > 20 µM | > 20 µM |
| O=C(NCCCc1ccccn1)c1ccc(-n2cccn2)c(C#Cc2ccccc2)c1 [TT-02935] | 10 to 20 µM | 5 to 10 µM |
| O=C(NCCCN1CCOCC1)c1ccc(-n2cccn2)c(C#Cc2cccnc2)c1 [TT-02936] | > 20 µM | > 20 µM |
| O=C(NCCCN1CCCC1=O)c1ccc(-n2cccn2)c(C#Cc2cccnc2)c1 [TT-02937] | > 20 µM | > 20 µM |
| O=C(NCCN1C(=O)CSC1=O)c1ccc(-n2cccn2)c(C#Cc2cccnc2)c1 [TT-02938] | > 20 µM | > 20 µM |
| Cn1nnnc1SCCNC(=O)c1ccc(-n2cccn2)c(C#Cc2cccnc2)c1 [TT-02939] | > 20 µM | 5 to 10 µM |
| Cc1n[nH]c(SCCNC(=O)c2ccc(-n3cccn3)c(C#Cc3cccnc3)c2)n1 [TT-02940] | > 20 µM | 10 to 20 µM |
| O=C(NCCCc1ccccn1)c1ccc(-n2cccn2)c(C#Cc2cccnc2)c1 [TT-02941] | 10 to 20 µM | 5 to 10 µM |
| Cc1nn(-c2ccc(C(=O)NCCc3cnccn3)cc2C#Cc2ccccc2)c(C)c1C [TT-02942] | > 20 µM | 5 to 10 µM |

| Structure (SMILES) | IC50 [1] | IC50 [2] |
| --- | --- | --- |
| O=C(NCCc1cnccn1)c1ccc(-n2cccn2)c(C#Cc2ccccc2)c1 [TT-02943] | 10 to 20 µM | 1 to 5 µM |
| O=C(NCc1cccnc1)c1ccc(-n2cccn2)c(C#Cc2cccnc2)c1 [TT-02944] | > 20 µM | 10 to 20 µM |
| Cc1ccnn1CCNC(=O)c1ccc(-n2cccn2)c(C#Cc2cccnc2)c1 [TT-02945] | > 20 µM | > 20 µM |
| CC(C)(C)NC(=O)c1ccc(-n2cccn2)c(C#Cc2ccccn2)c1 [TT-02946] | > 20 µM | 5 to 10 µM |
| O=C(NCc1ccco1)c1ccc(-n2cccn2)c(C#Cc2ccccn2)c1 [TT-02947] | > 20 µM | < 1 µM |
| CCc1nnc(NC(=O)c2ccc(-n3cccn3)c(C#Cc3ccccn3)c2)s1 [TT-02948] | > 20 µM | > 20 µM |
| Cc1nn(-c2ccc(C(=O)NCCc3c[nH]cn3)cc2C#Cc2ccccc2)c(C)c1C [TT-02949] | 10 to 20 µM | 5 to 10 µM |
| O=C(NCCCn1ccnc1)c1ccc(-n2cccn2)cc1 [TT-03071] | 1 to 5 µM | 1 to 5 µM |
| O=C(NCCCn1ccnc1)c1cccc(Br)c1 [TT-03073] | > 20 µM | > 20 µM |
| Cc1ccc(C(=O)NCCCn2ccnc2)cc1C#Cc1ccccc1 [TT-03196] | < 1 µM | < 1 µM |
| O=C(NCCCc1cn[nH]c1)c1ccc(-n2cccn2)c(C#Cc2cccc(F)c2)c1 [TT-03198] | < 1 µM | < 1 µM |
| Cc1ccc(C#Cc2cc(C(=O)NCCCc3cn[nH]c3)ccc2-n2cccn2)cc1 [TT-03201] | < 1 µM | < 1 µM |
| O=C(NCCCc1cn[nH]c1)c1ccc(-n2cccn2)c(C#Cc2ccccc2F)c1 [TT-03211] | < 1 µM | < 1 µM |
| O=C(NCCCn1ccnc1)c1ccc(-n2cccn2)c(C#Cc2cccc(F)c2)c1 [TT-03217] | < 1 µM | < 1 µM |
| O=C(NCCCn1ccnc1)c1ccc(-n2cccn2)c(C#Cc2ccc(Cl)cc2)c1 [TT-03221] | < 1 µM | < 1 µM |
| O=C(NCCCn1ccnc1)c1ccc(-n2cccn2)c(C#Cc2ccccc2F)c1 [TT-03225] | < 1 µM | < 1 µM |
| O=C(NCCCc1cn[nH]c1)c1ccc(N2CCCC2)c(C#Cc2ccccc2)c1 [TT-03230] | < 1 µM | < 1 µM |
| O=C(NCCCc1cn[nH]c1)c1ccc(N2CCOCC2)c(C#Cc2ccccc2)c1 [TT-03232] | < 1 µM | < 1 µM |
| O=C(NCCCc1cn[nH]c1)c1ccc(Oc2ccccc2)c(C#Cc2ccccc2)c1 [TT-03233] | < 1 µM | < 1 µM |
| O=C(NCCCc1cn[nH]c1)c1ccc(-n2cnnc2)c(C#Cc2ccccc2)c1 [TT-03237] | > 20 µM | > 20 µM |
| CN(C)c1ccc(C(=O)NCCCc2cn[nH]c2)cc1C#Cc1ccccc1 [TT-03242] | < 1 µM | < 1 µM |
| O=C(NCCCc1cn[nH]c1)c1ccc(-c2cccnc2)c(C#Cc2ccccc2)c1 [TT-03245] | < 1 µM | < 1 µM |
| O=C(NCCCc1cn[nH]c1)c1ccc(-c2ccncc2)c(C#Cc2ccccc2)c1 [TT-03246] | < 1 µM | < 1 µM |
| Cc1ccc(C(=O)NCCCc2cn[nH]c2)cc1C#Cc1ccccc1 [TT-03248] | < 1 µM | < 1 µM |
| CN(C)c1ccc(C(=O)NCCCn2ccnc2)cc1C#Cc1ccccc1 [TT-03252] | < 1 µM | < 1 µM |
| O=C(NCCCn1ccnc1)c1ccc(-c2ccncc2)c(C#Cc2ccccc2)c1 [TT-03256] | < 1 µM | < 1 µM |
